Measured values as given in BindingDB's records for doi:10.1021/jm00100a021 (University of Illinois, 1992).

Columns and labels:
[1] = target: Urokinase-type plasminogen activator (Homo sapiens, UniProt P00749); test: ChEBML_213149
Source text: […] rate constant against Urokinase-type plasminogen activator

Serine protease 1 = target: T1, Serine protease 1 (Bos taurus, UniProt P00760); test: ChEBML_212371
T1 sequence (P00760 whole entry): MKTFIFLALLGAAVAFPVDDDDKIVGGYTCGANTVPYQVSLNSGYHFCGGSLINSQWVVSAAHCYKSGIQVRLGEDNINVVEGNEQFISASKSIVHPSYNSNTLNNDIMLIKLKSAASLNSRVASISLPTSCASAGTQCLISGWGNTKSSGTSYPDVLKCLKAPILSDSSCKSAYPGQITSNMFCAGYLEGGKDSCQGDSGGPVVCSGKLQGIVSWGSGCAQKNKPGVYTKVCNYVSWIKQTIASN
Source text: […] rate constant against trypsin

SMILES | koff [1] [s⁻¹] | koff (Serine protease 1) [s⁻¹]
C=C1CC(c2ccc(N=C(N)N)cc2)CC(=O)O1 (stereo not drawn) | 0.00015 | 3.3e-05
N=C(N)Nc1ccc(C2CC(=O)O/C(=C/I)C2)cc1 (stereo not drawn) |  | 0.000333
